Results as given in patent publication US11254695B2, “Soluble C5aR antagonists” (CHEMOCENTRYX, INC., priority 2016, dated 2022).
≈ marks a conversion by molar mass, not a printed value. Counter-ions that a name gives are not always drawn.

test: Solubility in Milli-Q water, examined with naked eye; format: physicochemical; details: thermodynamic from solid; arbitrary amount in 1 mL Milli-Q water, room temperature, clear solution by naked eye; not the maximum solubility; read-out: Solubility in H2O
Excerpt: Experiments with no visible particles by naked eye were considered as clear solutions. It is important to note that the reported solubility information is not the maximum solubility of the compounds in water.

Row | Compound | solubility [µg/mL]
1 | Cc1cccc(F)c1C(=O)N1CCC[C@H](C(=O)Nc2ccc(COC(=O)C(N)C(C)C)c(C(F)(F)F)c2)[C@@H]1c1ccc(NC2CCCC2)cc1 (stereo in doubt) [Example 17, [4-[[(2R,3S)-2-[4-(cyclopentylamino)phenyl]-1-(2-fluoro-6-methyl-benzoyl)piperidine-3-carbonyl]amino]-2-(trifluoromethyl)phenyl]methyl (2R)-2-amino-3-methyl-butanoate] | 4000 (≈ 5.74 mM)
2 | Cc1ccc(NC(=O)[C@H]2CCCN(C(=O)c3c(C)cccc3F)[C@H]2c2ccc(N(C3CCCC3)P(=O)(O)N[C@@H](Cc3c[nH]cn3)C(=O)O)cc2)cc1C(F)(F)F [Example 3, 2-[[[N-cyclopentyl-4-[(2R,3S)-1-(2-fluoro-6-methyl-benzoyl)-3-[[4-methyl-3-(trifluoromethyl)phenyl]carbamoyl]-2-piperidyl]anilino]-hydroxy-phosphoryl]amino]-3-(1H-imidazol-4-yl)propanoic acid] | 5000 (≈ 6.26 mM)
3 | Cc1ccc(NC(=O)[C@H]2CCCN(C(=O)c3c(C)cccc3F)[C@H]2c2ccc(N(C(=O)OCc3ccc(OP(=O)(O)O)cc3)C3CCCC3)cc2)cc1C(F)(F)F [Example 8, (4-phosphonooxyphenyl)methyl N-cyclopentyl-N-[4-[(2R,3S)-1-(2-fluoro-6-methyl-benzoyl)-3-[[4-methyl-3-(trifluoromethyl)phenyl]carbamoyl]-2-piperidyl]phenyl]carbamate] | 1000 (≈ 1.23 mM)
4 | Cc1ccc(N(COP(=O)(O)O)C(=O)[C@H]2CCCN(C(=O)c3c(C)cccc3F)[C@H]2c2ccc(NC3CCCC3)cc2)cc1C(F)(F)F [Example 11, [N-[(2R,3S)-2-[4-(cyclopentylamino)phenyl]-1-(2-fluoro-6-methyl-benzoyl)piperidine-3-carbonyl]-4-methyl-3-(trifluoromethyl)anilino]methyl dihydrogen phosphate] | > 5000
5 | Cc1cccc(F)c1C(=O)N1CCC[C@H](C(=O)Nc2ccc(COC(=O)CNC(=O)CN)c(C(F)(F)F)c2)[C@@H]1c1ccc(NC2CCCC2)cc1 [Example 13] | 10000 (≈ 14 mM)
6 | Cc1cccc(F)c1C(=O)N1CCC[C@H](C(=O)Nc2ccc(COC(=O)CNC(=O)[C@@H](N)C(C)C)c(C(F)(F)F)c2)[C@@H]1c1ccc(NC2CCCC2)cc1 [Example 14, [4-[[(2R,3S)-2-[4-(cyclopentylamino)phenyl]-1-(2-fluoro-6-methyl-benzoyl)piperidine-3-carbonyl]amino]-2-(trifluoromethyl)phenyl]methyl 2-[[(2S)-2-amino-3-methyl-butanoyl]amino]acetate] | 5000 (≈ 6.63 mM)
7 | Cc1cccc(F)c1C(=O)N1CCC[C@H](C(=O)Nc2ccc(COC(=O)[C@@H](NC(=O)CN)C(C)C)c(C(F)(F)F)c2)[C@@H]1c1ccc(NC2CCCC2)cc1 [Example 15, [4-[[(2R,3S)-2-[4-(cyclopentylamino)phenyl]-1-(2-fluoro-6-methyl-benzoyl)piperidine-3-carbonyl]amino]-2-(trifluoromethyl)phenyl]methyl (2S)-2-[(2-aminoacetyl)amino]-3-methyl-butanoate] | 5000 (≈ 6.63 mM)
8 | Cc1cccc(F)c1C(=O)N1CCC[C@H](C(=O)Nc2ccc(COC(=O)[C@@H](NC(=O)[C@@H](N)C(C)C)C(C)C)c(C(F)(F)F)c2)[C@@H]1c1ccc(NC2CCCC2)cc1 [Example 16, [4-[[(2R,3S)-2-[4-(cyclopentylamino)phenyl]-1-(2-fluoro-6-methyl-benzoyl)piperidine-3-carbonyl]amino]-2-(trifluoromethyl)phenyl]methyl (2S)-2-[[(2S)-2-amino-3-methyl-butanoyl]amino]-3-methyl-butanoate] | 5000 (≈ 6.28 mM)
9 | Cc1cccc(F)c1C(=O)N1CCC[C@H](C(=O)Nc2ccc(COC(=O)[C@H](C)N)c(C(F)(F)F)c2)[C@@H]1c1ccc(NC2CCCC2)cc1 [Example 18, [4-[[(2R,3S)-2-[4-(cyclopentylamino)phenyl]-1-(2-fluoro-6-methyl-benzoyl)piperidine-3-carbonyl]amino]-2-(trifluoromethyl)phenyl]methyl (2S)-2-aminopropanoate] | > 5000
10 | Cc1cccc(F)c1C(=O)N1CCC[C@H](C(=O)Nc2ccc(COC(=O)CN)c(C(F)(F)F)c2)[C@@H]1c1ccc(NC2CCCC2)cc1 [Example 20, [4-[[(2R,3S)-2-[4-(cyclopentylamino)phenyl]-1-(2-fluoro-6-methyl-benzoyl)piperidine-3-carbonyl]amino]-2-(trifluoromethyl)phenyl]methyl 2-aminoacetate] | > 10000
11 | Cc1cccc(F)c1C(=O)N1CCC[C@H](C(=O)Nc2ccc(COCOP(=O)(O)O)c(C(F)(F)F)c2)[C@@H]1c1ccc(NC2CCCC2)cc1 [Example 22, [4-[[(2R,3S)-2-[4-(cyclopentylamino)phenyl]-1-(2-fluoro-6-methyl-benzoyl)piperidine-3-carbonyl]amino]-2-(trifluoromethyl)phenyl]methoxymethyl dihydrogen phosphate] | 15000
12 | Cc1cccc(F)c1C(=O)N1CCC[C@H](C(=O)Nc2ccc(COC(=O)c3cccc(CN4CCN(C)CC4)c3)c(C(F)(F)F)c2)[C@@H]1c1ccc(NC2CCCC2)cc1 [Example 23, [4-[[(2R,3S)-2-[4-(cyclopentylamino)phenyl]-1-(2-fluoro-6-methyl-benzoyl)piperidine-3-carbonyl]amino]-2-(trifluoromethyl)phenyl]methyl 3-[(4-methylpiperazin-1-yl)methyl]benzoate] | > 1000

Now from value to compound:

Row | solubility [µg/mL] | Compound
13 | > 10000 | Cc1ccc(NC(=O)[C@H]2CCCN(C(=O)c3c(C)cccc3F)[C@H]2c2ccc(N(C(=O)CN(C)C)C3CCCC3)cc2)cc1C(F)(F)F [Example 1, (2R,3S)-2-[4-[cyclopentyl-[2-(dimethylamino)acetyl]amino]phenyl]-1-(2-fluoro-6-methyl-benzoyl)-N-[4-methyl-3-(trifluoromethyl)phenyl]piperidine-3-carboxamide]
14 | > 5000 | Cc1ccc(NC(=O)[C@H]2CCCN(C(=O)c3c(C)cccc3F)[C@H]2c2ccc(N(C(=O)CN)C3CCCC3)cc2)cc1C(F)(F)F [Example 2, (2R,3S)-2-[4-[(2-aminoacetyl)-cyclopentyl-amino]phenyl]-1-(2-fluoro-6-methyl-benzoyl)-N-[4-methyl-3-(trifluoromethyl)phenyl]piperidine-3-carboxamide]
15 | 1000 (≈ 1.37 mM) | Cc1ccc(NC(=O)[C@H]2CCCN(C(=O)c3c(C)cccc3F)[C@H]2c2ccc(N(C3CCCC3)P(=O)(O)OC(=O)C(C)C)cc2)cc1C(F)(F)F [Example 4, N-cyclopentyl-N-[4-[(2R,3S)-1-(2-fluoro-6-methyl-benzoyl)-3-[[4-methyl-3 (trifluoromethyl)phenyl]carbamoyl]-2-piperidyl]phenyl]-(2-methylpropanoyloxy)phosphonamidic acid]
16 | 10000 (≈ 14.4 mM) | Cc1ccc(NC(=O)[C@H]2CCCN(C(=O)c3c(C)cccc3F)[C@H]2c2ccc(N(C(=O)CNC(=O)CN)C3CCCC3)cc2)cc1C(F)(F)F [Example 5, (2R,3S)-2-[4-[[2-[(2-aminoacetyl)amino]acetyl]-cyclopentyl-amino]phenyl]-1-(2-fluoro-6-methyl-benzoyl)-N-[4-methyl-3-(trifluoromethyl)phenyl]piperidine-3-carboxamide]
17 | 5000 | Cc1ccc(NC(=O)[C@H]2CCCN(C(=O)c3c(C)cccc3F)[C@H]2c2ccc(N(C(=O)CNC(=O)[C@@H](N)CCCN)C3CCCC3)cc2)cc1C(F)(F)F [Example 6, (2R,3S)-2-[4-[cyclopentyl-[2-[[(2S)-2,5-diaminopentanoyl]amino]acetyl]amino]phenyl]-1-(2-fluoro-6-methyl-benzoyl)-N-[4-methyl-3-(trifluoromethyl)phenyl]piperidine-3-carboxamide dihydrochloride]
18 | 1000 to 2000 (≈ 1.32 to 2.65 mM) | Cc1ccc(NC(=O)[C@H]2CCCN(C(=O)c3c(C)cccc3F)[C@H]2c2ccc(N(C(=O)OCOC(=O)[C@@H](N)C(C)C)C3CCCC3)cc2)cc1C(F)(F)F [Example 7, [cyclopentyl-[4-[(2R,3S)-1-(2-fluoro-6-methyl-benzoyl)-3-[[4-methyl-3-(trifluoromethyl)phenyl]carbamoyl]-2-piperidyl]phenyl]carbamoyl]oxymethyl (2S)-2-amino-3-methyl-butanoate]
19 | > 10000 | Cc1ccc(NC(=O)[C@H]2CCCN(C(=O)c3c(C)cccc3F)[C@H]2c2ccc(N(C(=O)OCOP(=O)(O)O)C3CCCC3)cc2)cc1C(F)(F)F [Example 9, phosphonooxymethyl N-cyclopentyl-N-[4-[(2R,3S)-1-(2-fluoro-6-methyl-benzoyl)-3-[[4-methyl-3-(trifluoromethyl)phenyl]carbamoyl]-2-piperidyl]phenyl]carbamate]
20 | 1000 (≈ 1.33 mM) | Cc1ccc(NC(=O)[C@H]2CCCN(C(=O)c3c(C)cccc3F)[C@H]2c2ccc(N(C(=O)OCOC(=O)/C=C/C(=O)O)C3CCCC3)cc2)cc1C(F)(F)F [Example 10, (E)-4-[[cyclopentyl-[4-[(2R,3S)-1-(2-fluoro-6-methyl-benzoyl)-3-[[4-methyl-3-(trifluoromethyl)phenyl]carbamoyl]-2-piperidyl]phenyl]carbamoyl]oxymethoxy]-4-oxo-but-2-enoic acid]

test: physchem; format: physicochemical; details: 25 °C, pH 7, aqueous buffer, thermodynamic from solid
Procedure: Saturated solutions of compound in pH 7 buffers were left overnight at room temperature (25° C.) before they were centrifuged. The supernatants were taken out and quantified. Solubility: 0.053 μg/mL.

Row | solubility [µg/mL] | Compound
21 | 0.053 (≈ 9.11e-05 mM) | Cc1ccc(NC(=O)[C@H]2CCCN(C(=O)c3c(C)cccc3F)[C@H]2c2ccc(NC3CCCC3)cc2)cc1C(F)(F)F

test: Solubility of saturated solutions in D.I. water, quantified by LC-MS; format: physicochemical; details: thermodynamic from solid, saturated solution in D.I. water, shaken 3 hours at room temperature, average of four replicates
Procedure: Saturated solutions of compound were freshly prepared by adding 1 mL D.I. water into 0.8 mg compound powder. After shaking at room temperature for 3 hours, the samples were centrifuged under 14000 rpm for 15 minutes twice. The supernatants were carefully taken out and quantified by LC-MS. Solubility: 1.2±0.2 μg/mL (average of four replicates).

Row | solubility at 3 h [µg/mL] | Compound
22 | 1.2 ± 0.2 (≈ 0.00201 mM) | Cc1cccc(F)c1C(=O)N1CCC[C@H](C(=O)Nc2ccc(CO)c(C(F)(F)F)c2)[C@@H]1c1ccc(NC2CCCC2)cc1
